# Laboratory results published in patent publication US12780800B1, “Triazole-pyridinyl substituted azacyclohexyl acetic acid compounds as LPA receptor antagonists” (Viva Star Biosciences Limited, priority 2021, dated 2022).
# Target: T1, LPA1 (Homo sapiens, UniProt Q92633)
# T1 construct: ProLink (PK) beta-galactosidase enzyme-fragment tag; host or cells: CHO-K1
# Assay: LPA1 calcium flux assay (LPA1 functional antagonist assay)
# Assay type: cell-based
# Conditions: PathHunter CHO-K1 EDG2 β-Arrestin cell line; calcium indicator dye; stimulated with EC80 concentration of LPA; FLIPR Tetra
# Summary of the method: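 The LPA1 antagonist readout was intracellular calcium flux, and IC50 values were calculated from it. Plates stood 30 min at RT after compound addition. Cells, grown overnight, had first taken up calcium dye over 45 min at 37 °C.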
# T1 sequence (Q92633 whole entry, the tested form may be a part): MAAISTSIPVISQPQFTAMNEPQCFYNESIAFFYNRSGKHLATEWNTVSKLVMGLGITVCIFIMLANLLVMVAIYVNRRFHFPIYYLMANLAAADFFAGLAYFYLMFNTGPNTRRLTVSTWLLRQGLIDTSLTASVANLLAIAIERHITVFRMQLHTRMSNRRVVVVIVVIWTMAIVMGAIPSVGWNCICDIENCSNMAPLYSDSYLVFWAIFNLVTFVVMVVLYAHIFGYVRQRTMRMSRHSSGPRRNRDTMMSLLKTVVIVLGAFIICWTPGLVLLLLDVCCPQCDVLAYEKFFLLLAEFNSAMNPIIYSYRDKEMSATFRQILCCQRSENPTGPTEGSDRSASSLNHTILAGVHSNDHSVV
row,Structure (SMILES),IC50
1,"Cc1nc(-c2nnn(C)c2CN2C[C@@H](CC3CC3)N(C)C2=O)ccc1N1C[C@@H](CC(=O)O)CC(F)(F)C1 [Example 62, 2-((S)-1-(6-(5-(((R)-4-(cyclopropylmethyl)-3-methyl-2-oxoimidazolidin-1-yl)methyl)-1-methyl-1H-1,2,3-triazol-4-yl)-2-methylpyridin-3-yl)-5,5-difluoropiperidin-3-yl)acetic acid]",500 to 5000 nM
2,"Cc1nc(-c2nnn(C)c2CN2C[C@H](CC3CC3)N(C)C2=O)ccc1N1C[C@@H](CC(=O)O)CC(F)(F)C1 [Example 63, 2-((S)-1-(6-(5-(((S)-4-(cyclopropylmethyl)-3-methyl-2-oxoimidazolidin-1-yl)methyl)-1-methyl-1H-1,2,3-triazol-4-yl)-2-methylpyridin-3-yl)-5,5-difluoropiperidin-3-yl)acetic acid]",100 to 500 nM
3,"Cc1nc(-c2nnn(C)c2CN2C[C@H](CC3CC3)N(C)C2=O)ccc1N1C[C@H](CC(=O)O)CC(F)(F)C1 [Example 64, 2-((R)-1-(6-(5-(((S)-4-(cyclopropylmethyl)-3-methyl-2-oxoimidazolidin-1-yl)methyl)-1-methyl-1H-1,2,3-triazol-4-yl)-2-methylpyridin-3-yl)-5,5-difluoropiperidin-3-yl)acetic acid]",500 to 5000 nM
4,"CCc1nc(-c2nnn(C)c2CN2C[C@H](CC3CC3)NC2=O)ccc1N1C[C@@H](CC(=O)O)CC(F)(F)C1 [Example 65, 2-((S)-1-(6-(5-(((S)-4-(cyclopropylmethyl)-2-oxoimidazolidin-1-yl)methyl)-1-methyl-1H-1,2,3-triazol-4-yl)-2-ethylpyridin-3-yl)-5,5-difluoropiperidin-3-yl)acetic acid]",> 5000 nM
5,"Cc1nc(-c2nnn(C)c2Cn2cc(CC3CC3)n(C)c2=O)ccc1N1C[C@@H](CC(=O)O)CC(F)(F)C1 [Example 67, (S)-2-(1-(6-(5-((4-(cyclopropylmethyl)-3-methyl-2-oxo-2,3-dihydro-1H-imidazol-1-yl)methyl)-1-methyl-1H-1,2,3-triazol-4-yl)-2-methylpyridin-3-yl)-5,5-difluoropiperidin-3-yl)acetic acid]",100 to 500 nM
6,"CCc1nc(-c2nnn(C)c2Cn2nc(CC3CC3)n(C)c2=O)ccc1N1C[C@@H](CC(=O)O)CC(F)(F)C1 [Example 68, (S)-2-(1-(6-(5-((3-(cyclopropylmethyl)-4-methyl-5-oxo-4,5-dihydro-1H-1,2,4-triazol-1-yl)methyl)-1-methyl-1H-1,2,3-triazol-4-yl)-2-ethylpyridin-3-yl)-5,5-difluoropiperidin-3-yl)acetic acid]",500 to 5000 nM
7,"Cc1nc(-c2nnn(C)c2Cn2ccn(CC(C)C)c2=O)ccc1N1C[C@@H](CC(=O)O)CC(F)(F)C1 [Example 71, (S)-2-(5,5-difluoro-1-(6-(5-((3-isobutyl-2-oxo-2,3-dihydro-1H-imidazol-1-yl)methyl)-1-methyl-1H-1,2,3-triazol-4-yl)-2-methylpyridin-3-yl)piperidin-3-yl)acetic acid]",> 5000 nM
8,"Cc1nc(-c2nnn(C)c2Cn2ccn(CC3CC3)c2=O)ccc1N1C[C@@H](CC(=O)O)CC(F)(F)C1 [Example 72, (S)-2-(1-(6-(5-((3-(cyclopropylmethyl)-2-oxo-2,3-dihydro-1H-imidazol-1-yl)methyl)-1-methyl-1H-1,2,3-triazol-4-yl)-2-methylpyridin-3-yl)-5,5-difluoropiperidin-3-yl)acetic acid]",> 5000 nM
9,"CCC(C)n1ccn(Cc2c(-c3ccc(N4C[C@@H](CC(=O)O)CC(F)(F)C4)c(C)n3)nnn2C)c1=O (stereo partly drawn) [Example 73, 2-((3S)-1-(6-(5-((3-(sec-butyl)-2-oxo-2,3-dihydro-1H-imidazol-1-yl)methyl)-1-methyl-1H-1,2,3-triazol-4-yl)-2-methylpyridin-3-yl)-5,5-difluoropiperidin-3-yl)acetic acid]",> 5000 nM
10,"Cc1nc(-c2nnn(C)c2COc2nccc(C3CC3)n2)ccc1N1C[C@@H](CC(=O)O)CC(F)(F)C1 [Example 75, (S)-2-(1-(6-(5-(((4-cyclopropylpyrimidin-2-yl)oxy)methyl)-1-methyl-1H-1,2,3-triazol-4-yl)-2-methylpyridin-3-yl)-5,5-difluoropiperidin-3-yl)acetic acid]",500 to 5000 nM
11,"Cc1nc(-c2nnn(C)c2COc2nccc(C(C)C)n2)ccc1N1C[C@@H](CC(=O)O)CC(F)(F)C1 [Example 77, (S)-2-(5,5-difluoro-1-(6-(5-(((4-isopropylpyrimidin-2-yl)oxy)methyl)-1-methyl-1H-1,2,3-triazol-4-yl)-2-methylpyridin-3-yl)piperidin-3-yl)acetic acid]",100 to 500 nM
12,"CCc1nc(-c2nnn(C)c2COc2nccc(C3CCC3)n2)ccc1N1CCC[C@@H](CC(=O)O)C1 [Example 81, (S)-2-(1-(6-(5-(((4-cyclobutylpyrimidin-2-yl)oxy)methyl)-1-methyl-1H-1,2,3-triazol-4-yl)-2-ethylpyridin-3-yl)piperidin-3-yl)acetic acid]",> 5000 nM
13,"CCc1nc(-c2nnn(C)c2COc2nccc(N3CCCC3)n2)ccc1N1CCC[C@H](CC(=O)O)C1 [Example 83, (R)-2-(1-(2-ethyl-6-(1-methyl-5-(((4-(pyrrolidin-1-yl)pyrimidin-2-yl)oxy)methyl)-1H-1,2,3-triazol-4-yl)pyridin-3-yl)piperidin-3-yl)acetic acid]",100 to 500 nM
14,"Cc1nc(-c2nnn(C)c2COc2nnccc2CC(C)C)ccc1N1C[C@@H](CC(=O)O)CC(F)(F)C1 [Example 86, (S)-2-(5,5-difluoro-1-(6-(5-(((4-isobutylpyridazin-3-yl)oxy)methyl)-1-methyl-1H-1,2,3-triazol-4-yl)-2-methylpyridin-3-yl)piperidin-3-yl)acetic acid]",100 to 500 nM
15,"CCc1nc(-c2cnn(C)c2COc2nccc(C3CCC3)n2)ncc1N1C[C@@H](CC(=O)O)CC(F)(F)C1 [Example 87, (S)-2-(1-(2-(5-(((4-cyclobutylpyrimidin-2-yl)oxy)methyl)-1-methyl-1H-pyrazol-4-yl)-4-ethylpyrimidin-5-yl)-5,5-difluoropiperidin-3-yl)acetic acid]",< 100 nM
16,"CCc1nc(-c2nnn(C)c2COc2nccc(C3CCC3)n2)cc(F)c1N1CCCC(CC(=O)O)C1 (centres unmarked) [Example 88, 2-(1-(6-(5-(((4-cyclobutylpyrimidin-2-yl)oxy)methyl)-1-methyl-1H-1,2,3-triazol-4-yl)-2-ethyl-4-fluoropyridin-3-yl)piperidin-3-yl)acetic acid]",100 to 500 nM
17,"Cc1nc(-c2cnn(C)c2COc2cc(-n3cccn3)ncn2)ccc1N1C[C@@H](CC(=O)O)CC(F)(F)C1 [Example 89, (S)-2-(1-(6-(5-(((6-(1H-pyrazol-1-yl)pyrimidin-4-yl)oxy)methyl)-1-methyl-1H-pyrazol-4-yl)-2-methylpyridin-3-yl)-5,5-difluoropiperidin-3-yl)acetic acid]",< 100 nM
18,"CCc1nc(-c2cnn(C)c2COc2cc(-n3cccn3)ncn2)ccc1N1CCC[C@H](CC(=O)O)C1 [Example 90, (R)-2-(1-(6-(5-(((6-(1H-pyrazol-1-yl)pyrimidin-4-yl)oxy)methyl)-1-methyl-1H-pyrazol-4-yl)-2-ethylpyridin-3-yl)piperidin-3-yl)acetic acid]",< 100 nM

# The next lines start with the values.
row,IC50,Structure (SMILES)
1,< 100 nM,"CCc1nc(-c2nnn(C)c2COc2nccc(C3CCC3)n2)ccc1N1CCC[C@H](CC(=O)O)C1 [Example 74, (R)-2-(1-(6-(5-(((4-cyclobutylpyrimidin-2-yl)oxy)methyl)-1-methyl-11H-1,2,3-triazol-4-yl)-2-ethylpyridin-3-yl)piperidin-3-yl)acetic acid]"
2,< 100 nM,"Cc1nc(-c2nnn(C)c2COc2nccc(C3CCC3)n2)ccc1N1C[C@@H](CC(=O)O)CC(F)(F)C1 [Example 76, (S)-2-(1-(6-(5-(((4-cyclobutylpyrimidin-2-yl)oxy)methyl)-1-methyl-1H-1,2,3-triazol-4-yl)-2-methylpyridin-3-yl)-5,5-difluoropiperidin-3-yl)acetic acid]"
3,< 100 nM,"Cc1nc(-c2nnn(C)c2COc2cc(-n3cccn3)ncn2)ccc1N1C[C@@H](CC(=O)O)CC(F)(F)C1 [Example 78, (S)-2-(1-(6-(5-(((6-(1H-pyrazol-1-yl)pyrimidin-4-yl)oxy)methyl)-1-methyl-1H-1,2,3-triazol-4-yl)-2-methylpyridin-3-yl)-5,5-difluoropiperidin-3-yl)acetic acid]"
4,< 100 nM,"CCc1nc(-c2nnn(C)c2COc2nccc(C3CCC3)n2)ccc1N1C[C@@H](CC(=O)O)CC(F)(F)C1 [Example 79, (S)-2-(1-(6-(5-(((4-cyclobutylpyrimidin-2-yl)oxy)methyl)-1-methyl-1H-1,2,3-triazol-4-yl)-2-ethylpyridin-3-yl)-5,5-difluoropiperidin-3-yl)acetic acid]"
5,< 100 nM,"CCc1nc(-c2nnn(C)c2COc2cc(C3CCC3)ncn2)ccc1N1CCC[C@H](CC(=O)O)C1 [Example 80, (R)-2-(1-(6-(5-(((6-cyclobutylpyrimidin-4-yl)oxy)methyl)-1-methyl-1H-1,2,3-triazol-4-yl)-2-ethylpyridin-3-yl)piperidin-3-yl)acetic acid]"
6,< 100 nM,"CCc1nc(-c2nnn(C)c2COc2cc(-n3cccn3)ncn2)ccc1N1CCC[C@H](CC(=O)O)C1 [Example 82, (R)-2-(1-(6-(5-(((6-(1H-pyrazol-1-yl)pyrimidin-4-yl)oxy)methyl)-1-methyl-1H-1,2,3-triazol-4-yl)-2-ethylpyridin-3-yl)piperidin-3-yl)acetic acid]"
7,< 100 nM,"Cc1nc(-c2nnn(C)c2COc2nccc(C3CCC3)n2)ccc1N1CCC[C@H](CC(=O)O)C1 [Example 84, (R)-2-(1-(6-(5-(((4-cyclobutylpyrimidin-2-yl)oxy)methyl)-1-methyl-1H-1,2,3-triazol-4-yl)-2-methylpyridin-3-yl)piperidin-3-yl)acetic acid]"
8,< 100 nM,"Cc1nc(-c2nnn(C)c2COc2cc(-n3cccn3)ncn2)ccc1N1CCC[C@H](CC(=O)O)C1 [Example 85, (R)-2-(1-(6-(5-(((6-(1H-pyrazol-1-yl)pyrimidin-4-yl)oxy)methyl)-1-methyl-1H-1,2,3-triazol-4-yl)-2-methylpyridin-3-yl)piperidin-3-yl)acetic acid]"
